The nature of data set [1]: Solubility in water. Format: physicochemical.
In data set [2] the test system is Staphylococcus aureus ATCC 29213. In words: PDI phototoxicity towards planktonic bacteria (CFU). Format: cell-based. The method, then: (§1) Phototoxicity towards bacteria was evaluated in vitro. Assays were performed with the following bacteria: Escherichia coli ATCC 25922, Pseudomonas aeruginosa ATCC 27853 and Staphylococcus aureus ATCC 29213. Further assay were performed with clinical antibiotic-resistant strains from the Centro Hospitalar da Universidade de Coimbra, namely Staphylococcus aureus methicillin-resistant (MRSA) strain Sa1CHUC recovered from the skin of a burnt patient (resistant to all beta-lactamic antibiotics), and Acinetobacter baumannii 141HUC isolated from an exudate of a burn wound and highly resistant to all beta-lactamics (penicillins, cephalosporins, monobactams and carbapenems), quinolones and the aminoglycosides gentamicin and netilmicin. The planktonic bacteria cells were cultured in Mueller Hinton (MH) agar (Sigma Aldrich) at 37° C. overnight. Cell density was adjusted to the 0.5 McFarland standard in sterile water, which corresponds to approximately 1.5×10^8 CFU/mL. For PDI experiments cell suspensions of bacteria were incubated with various concentrations of the photosensitizers for 1 h, in the dark, at room temperature, using a 96 well plate. Then, the plate was illuminated with a blue light LED (420 nm, 4 mJ/s). Cells incubated with photosensitizers in the dark were covered with aluminum foil for the same time as the PDI groups (1 h). After illumination (or dark incubation) samples were shaken, diluted in PBS and mixed. Aliquots were taken from each well and streaked in MH agar in duplicate for CFU determination and incubated for 37° C./18-24 h in the dark. After 24 h, the colonies were counted and CFU determined. The experiments were performed in triplicate. Statistical analysis was performed with GraphPad Prism 6.
(§2) This example describes the evaluation of in vitro phototoxicity against Gram-positive and Gram-negative bacteria of the cationic ortho-5,15-di-heteroaryl porphyrin with Formula (IIa). The phototoxicity was measured according to the description in the Materials and Methods section. […] There is a dose-phototoxicity response of the test compound relative to the non-treated control. FIG. 8 illustrates the CFU reduction as a function of photosensitizer concentration for the light dose of 1.36 J/cm^2 at 415 nm.

For data set [3], the system named is Escherichia coli ATCC 25922. The data set is described as above. Format: cell-based. The method, then:
as §1, §2

Data set [4] concerns Pseudomonas aeruginosa ATCC 27853. The data set is described as above. It counts as cell-based. The conditions noted are these: 60 min incubation. Here is the method: as §1, §2
Data set [5] deals with Acinetobacter baumannii 141HUC. Briefly: PDI phototoxicity towards multidrug-resistant planktonic bacteria (CFU). It counts as cell-based. The conditions noted are these: 60 min incubation, 1.36 J/cm^2 at 415 nm. Here is the method:
as §1
This example describes the evaluation of in vitro phototoxicity against multidrug-resistant Gram-positive and Gram-negative bacteria of the cationic ortho-5,15-di-heteroaryl porphyrin with Formula (IIa). Assays were performed with clinical resistant strains from the Centro Hospitalar da Universidade de Coimbra, namely Staphylococcus aureus methicillin-resistant (MRSA) strain Sa1CHUC collected from the skin of a burnt patient (resistant to all beta-lactamic antibiotics), and Acinetobacter baumannii 141HUC highly resistant all beta-lactamics, including carbapenems, quinolones, gentamicin and netilmicin, isolated from an exudate of a burn wound. The phototoxicity was measured according to the description in the Materials and Methods section. […] There is a dose-phototoxicity response of the test compound relative to the non-treated control. FIG. 9 illustrates the CFU reduction as a function of photosensitizer concentration for the light dose of 1.36 J/cm^2 at 415 nm.

Data set [6] can be described thus: n-Octanol:PBS partition ratio (modified shake-flask). It counts as physicochemical. The note with it: equal volumes. An excerpt:
n-Octanol:PBS partition ratio: a modification of the shake-flask method was employed to determine the equilibrium concentrations of the photosensitizer in n-octanol and in phosphate-buffered saline (PBS) mixed in equal volumes, using the typical fluorescence band of the same photosensitizer and the ratio of the fluorescences after dilution by the same factor with dimethylsulfoxide.

Data set [7] can be described thus: Photobleaching / photodecomposition experiments. It counts as physicochemical. Here is the method: Photobleaching experiments: Photodecomposition experiments were made dissolving the photosensitizers in water with 9% dimethylsulfoxide. A volume of 3 mL was placed in a cuvette and irradiated ensuring that all the light hits the solution. The porphyrins were irradiated using a LED light with emission at 415 nm and an effective output power of 0.27 mW. Photodecomposition quantum yield (Φpd) is defined as the ratio between the rate of disappearance of photosensitizer molecules vd and the rate of absorption of photons vp.
The intensity of its longest wavelength absorption band at 622 nm decreased by less than ΔA=0.001 after 15,000 second of illumination corresponding to an effective absorption of ca. 4 J. This places an upper limit of 0.001 to the photodecomposition quantum yield.

A short description of data set [8]: Fluorescence quantum yield. It counts as physicochemical. The conditions noted are these: standard TPP in toluene. Here is the method: Fluorescence Emission: The fluorescence emission spectra were recorded in a Horiba Scientific Spectrofluorometer Fluoromax-4. The spectra were collected from 550 nm up to 800 nm using standard cuvettes of 1 cm of optical path. Fluorescence quantum yields (ΦF) were obtained comparing the area of integrated fluorescence of the samples with that of a reference fluorimetric compound with known ΦF, corrected by the absorption of sample and reference at the excitation wavelength and by the refractive indices of the solvents used for the standard and reference solution. Tetraphenylporphyrin (TPP) in toluene (ΦF=0.11) was used as standard. The absorbance of the solutions at the excitation wavelength was 0.01.

Data set [9] in a line: Singlet oxygen quantum yield. It counts as physicochemical. The conditions noted are these: excitation 355 nm, reference phenalenone. The text has this: Singlet Oxygen Quantum Yield: The experiments were run at room temperature. The solutions were excited at 355 nm using a Nd-YAG laser (Spectra-Physics Quanta-Ray GRC-130) and the phosphorescence of singlet oxygen collected at 1270 nm in a Hamamatsu R5509-42 photomultiplier, cooled to 193 K in a liquid nitrogen chamber, after selection of the wavelength with a monochromator with 600 lines grading. A Newport filter model 10LWF-1000-B was used in the emission to avoid scattering and fluorescence. Phenalenone was used as a reference of singlet oxygen generator, ΦΔ^Ref=0.98. Extrapolating to time-zero the decays of the singlet molecular oxygen emissions measured for sample and the reference solutions at a given laser intensity, we obtained a relation between emission intensities as a function of laser intensity, that is identical to the relation between the singlet molecular oxygen quantum yields. The singlet oxygen quantum yields were obtained by comparing the linear dependence between and the energy of the laser pulse for both the sample and the reference for the same absorption of sample and reference at the excitation wavelength, taking into account the singlet oxygen quantum yield of phenalenone.

[10] abbreviates: 1 μM, planktonic, 1.36 J/cm^2 at 415 nm, 60 min incubation.
The mark [11] stands for this setting: nanomolar concentrations, 60 min incubation, low light doses.

With `Cn1cc[n+](C)c1C1=C2C=CC3=[N+]2[Zn@]24[n]5c(ccc51)C=C1C=CC(=[N+]12)C(c1n(C)cc[n+]1C)=c1ccc([n]14)=C3` [Formula (IIa), 5,15-bis(1,3-dimethylimidazol-2-yl)porphyrinate zinc (II) diiodide], in data set [1], the solubility in water entry is on record as “soluble in water”. Moreover, the “reduction of the number of bacterial CFU” value is listed as 7 orders of magnitude in [2] (1 μM, 1.36 J/cm^2 at 415 nm) and 7 orders of magnitude in data set [3] (1 μM, 1.36 J/cm^2 at 415 nm). The “log CFU at 1 μM, S. Aureus” value in data set [2] (setting [10]) is recorded as 7. The “CFU reduction (in words)” value was “dramatic decrease in CFU” in [2] (setting [11]); “dramatic decrease in CFU” in data set [3] (setting [11]); “dramatic decrease in CFU” in data set [4] (nanomolar concentrations, low light doses). Besides, the “log CFU at 1 μM, E. Coli” value in [3] (setting [10]) is listed as 7. Also, the “log CFU at 1 μM, P. Aerogirosa” value in [4] (1 μM, planktonic, 1.36 J/cm^2 at 415 nm) came to 3. Also, the “reduction of the number of bacterial CFU (in words)” value in data set [5] (1 μM) was “dramatic decrease in CFU”. Besides, the “log CFU at 1 μM, Acinetobacter 141Hu” value in data set [5] (planktonic) was determined as 7. In addition, in [6], the “log Pow” value is −1.16. Moreover, the photodecomposition quantum yield in data set [7] (LED 415 nm, water with 9% dimethylsulfoxide) is not above 0.001. Moreover, the “decrease ΔA of longest wavelength absorption band at 622 nm” value in [7] (after 15,000 second of illumination, effective absorption ca. 4 J) is listed as less than 0.001. Besides, the “ΦF fluorescence quantum yield” value in data set [8] worked out at 0.10. The “ΦΔ singlet oxygen generation quantum yield” value in data set [9] was found to be 0.75.
